# Patent US4311685A, “Assay method and kit” (Burroughs Wellcome Co., priority 1979, dated 1982)
# Test: in vitro
# Conditions: human, plasma
smiles,measurement,value
CC(C)NCC(O)COc1cccc2ccccc12 (racemic) [propranolol],"fraction unbound at 12 h, 0.07 µM",0.117
